The numbers were not newly measured in PMC8513935, which cites them from elsewhere.

Series [1] can be described thus: experimental, compiled by the authors from the literature (the ESI cites the sources).
Series [2] in a line: derived by the authors as gas->solvent minus gas->water (a hypothetical dry solvent; the ESI), not a two-phase measurement.

The structures appear in SMILES notation.

For the compound `c1ccncc1`, the log K of transfer, gas to solvent is 4.16 log10 K in series [1] (1,2-Dichloroethane, 25 C); 4.16 log10 K in series [1] (2-Methylpropan-1-ol, 25 C); 3.96 log10 K in series [1] (2-Methylpropan-2-ol, 25 C); 3.87 log10 K in series [1] (Benzene, 25 C); 3.95 log10 K in series [1] (Butan-1-ol, 25 C); 4.13 log10 K in series [1] (Butan-2-ol, 25 C). In addition, the log K of transfer, gas to solvent is 3.94 log10 K in series [1] (Butanone, 25 C); 3.77 log10 K in series [1] (CCl4, 25 C); 4.73 log10 K in series [1] (Chloroform, 25 C); 3.03 log10 K in series [1] (Cyclohexane, 25 C); 4.18 log10 K in series [1] (Ethanol, 25 C); 3.02 log10 K in series [1] (Hexadecane, 25 C). The log K of transfer, gas to solvent in series [1] (Hexane, 25 C) is 3.07 log10 K; in series [1] (Propan-1-ol, 25 C) it was 3.99 log10 K; in series [1] (Propan-2-ol, 25 C), 3.86 log10 K; in series [1] (Propanone, 25 C) it was 3.97 log10 K; in series [1] (Toluene, 25 C) it was 3.76 log10 K; in series [1] (Water, 25 C), 3.44 log10 K. Further, the log K of transfer, water to solvent in series [2] (1,2-Dichloroethane, 25 C) was 0.72 log10 K; in series [2] (2-Methylpropan-1-ol, 25 C), 0.72 log10 K; in series [2] (2-Methylpropan-2-ol, 25 C), 0.52 log10 K; in series [2] (Acetone, 25 C), 0.53 log10 K; in series [2] (Benzene, 25 C), 0.43 log10 K; in series [2] (Butan-1-ol, 25 C), 0.51 log10 K. The log K of transfer, water to solvent is 0.69 log10 K in series [2] (Butan-2-ol, 25 C); 0.5 log10 K in series [2] (Butanone, 25 C); 0.33 log10 K in series [2] (CCl4, 25 C); 1.29 log10 K in series [2] (Chloroform, 25 C); -0.41 log10 K in series [2] (Cyclohexane, 25 C); 0.74 log10 K in series [2] (Ethanol, 25 C). Also, the log K of transfer, water to solvent in series [2] (Hexadecane, 25 C) was -0.418 log10 K; in series [2] (Hexane, 25 C) it was -0.37 log10 K; in series [2] (Propan-1-ol, 25 C) it was 0.55 log10 K; in series [2] (Propan-2-ol, 25 C) it was 0.42 log10 K; in series [2] (Toluene, 25 C), 0.32 log10 K.

As to `CCCCCCCN`, the log K of transfer, gas to solvent was 4.15 log10 K in series [1] (Hexadecane, 25 C) and 2.78 log10 K in series [1] (Water, 25 C). Besides, in series [2] (Hexadecane, 25 C), the log K of transfer, water to solvent was 1.37 log10 K.

As for `CCCCC`, the log K of transfer, gas to solvent was 1.99 log10 K in series [1] (1,2-Dichloroethane, 25 C); 1.53 log10 K in series [1] (Acetonitrile, 25 C); 2.19 log10 K in series [1] (Benzene, 25 C); 1.98 log10 K in series [1] (Butan-1-ol, 25 C); 1.94 log10 K in series [1] (Butan-2-ol, 25 C); 2.07 log10 K in series [1] (Butanone, 25 C). Besides, the log K of transfer, gas to solvent was 1.92 log10 K in series [1] (Butyronitrile, 25 C); 2.36 log10 K in series [1] (CCl4, 25 C); 2.43 log10 K in series [1] (Chlorobenzene, 25 C); 2.36 log10 K in series [1] (Chloroform, 25 C); 2.57 log10 K in series [1] (Cyclohexane, 25 C); 1.98 log10 K in series [1] (Cyclohexanone, 25 C). Moreover, the log K of transfer, gas to solvent in series [1] (Di-n-butyl ether, 25 C) was 2.33 log10 K; in series [1] (Dichloromethane, 25 C) it was 2.24 log10 K; in series [1] (Ethanol, 25 C), 1.78 log10 K; in series [1] (Heptan-1-ol, 25 C) it was 1.95 log10 K; in series [1] (Hexadecane, 25 C), 2.16 log10 K; in series [1] (Hexan-1-ol, 25 C) it was 1.97 log10 K. The log K of transfer, gas to solvent in series [1] (Hexane, 25 C) was 2.44 log10 K; in series [1] (Methanol, 25 C), 1.66 log10 K; in series [1] (Octan-1-ol, 25 C) it was 1.95 log10 K; in series [1] (Pentan-1-ol, 25 C), 1.94 log10 K; in series [1] (Perfluoroalkane, 25 C) it was 1.55 log10 K; in series [1] (Propan-1-ol, 25 C), 1.81 log10 K. For the same compound, the log K of transfer, gas to solvent in series [1] (Propan-2-ol, 25 C) is 1.85 log10 K; in series [1] (Propanone, 25 C), 1.98 log10 K; in series [1] (Tetrahydrofuran, 25 C) it was 2.33 log10 K; in series [1] (Toluene, 25 C), 2.3 log10 K; in series [1] (Water, 25 C), -1.7 log10 K. For the same compound, the log K of transfer, water to solvent was 3.69 log10 K in series [2] (1,2-Dichloroethane, 25 C); 3.68 log10 K in series [2] (Acetone, 25 C); 3.23 log10 K in series [2] (Acetonitrile, 25 C); 3.89 log10 K in series [2] (Benzene, 25 C); 3.68 log10 K in series [2] (Butan-1-ol, 25 C); 3.64 log10 K in series [2] (Butan-2-ol, 25 C). Besides, the log K of transfer, water to solvent in series [2] (Butanone, 25 C) was 3.77 log10 K; in series [2] (Butyronitrile, 25 C), 3.62 log10 K; in series [2] (CCl4, 25 C), 4.06 log10 K; in series [2] (Chlorobenzene, 25 C), 4.13 log10 K; in series [2] (Chloroform, 25 C), 4.06 log10 K; in series [2] (Cyclohexane, 25 C) it was 4.27 log10 K. Also, the log K of transfer, water to solvent is 3.68 log10 K in series [2] (Cyclohexanone, 25 C); 4.03 log10 K in series [2] (Di-n-butyl ether, 25 C); 3.94 log10 K in series [2] (Dichloromethane, 25 C); 3.48 log10 K in series [2] (Ethanol, 25 C); 3.65 log10 K in series [2] (Heptan-1-ol, 25 C); 3.86 log10 K in series [2] (Hexadecane, 25 C). For the same compound, the log K of transfer, water to solvent in series [2] (Hexan-1-ol, 25 C) is 3.67 log10 K; in series [2] (Hexane, 25 C), 4.14 log10 K; in series [2] (Methanol, 25 C), 3.36 log10 K; in series [2] (Octan-1-ol(dry), 25 C) it was 3.65 log10 K; in series [2] (Pentan-1-ol, 25 C) it was 3.64 log10 K; in series [2] (Perfluoroalkane, 25 C), 3.25 log10 K. For the same compound, the log K of transfer, water to solvent was 3.51 log10 K in series [2] (Propan-1-ol, 25 C); 3.55 log10 K in series [2] (Propan-2-ol, 25 C); 4.03 log10 K in series [2] (Tetrahydrofuran, 25 C); 4.01 log10 K in series [2] (Toluene, 25 C).

As for `C=CCCCCCCC`, the log K of transfer, gas to solvent in series [1] (Hexadecane, 25 C) was 4.07 log10 K; in series [1] (Octan-1-ol, 25 C) it was 3.83 log10 K; in series [1] (Water, 25 C) it was -1.51 log10 K. Further, the log K of transfer, water to solvent was 5.58 log10 K in series [2] (Hexadecane, 25 C) and 5.34 log10 K in series [2] (Octan-1-ol(dry), 25 C).

In the case of `Oc1cccc(F)c1`, the log K of transfer, gas to solvent in series [1] (Hexadecane, 25 C) was 3.84 log10 K; in series [1] (Water, 25 C), 4.58 log10 K. The log K of transfer, water to solvent in series [2] (Hexadecane, 25 C) was -0.738 log10 K.

Consider `CCCCCCc1ccccc1`, for which the log K of transfer, gas to solvent in series [1] (Hexadecane, 25 C) is 5.72 log10 K; in series [1] (Methanol, 25 C), 5.23 log10 K; in series [1] (Water, 25 C) it was 0.03 log10 K. Moreover, the log K of transfer, water to solvent in series [2] (Hexadecane, 25 C) was 5.69 log10 K; in series [2] (Methanol, 25 C) it was 5.2 log10 K.

Take `CCCCCN`: the log K of transfer, gas to solvent in series [1] (Hexadecane, 25 C) was 3.14 log10 K; in series [1] (Water, 25 C), 3 log10 K. For the same compound, the log K of transfer, water to solvent in series [2] (Hexadecane, 25 C) was 0.139 log10 K.

Consider `CCSC`, for which the log K of transfer, gas to solvent in series [1] (Hexadecane, 25 C) was 2.37 log10 K; in series [1] (Water, 25 C), 1.1 log10 K. Further, the log K of transfer, water to solvent in series [2] (Hexadecane, 25 C) was 1.27 log10 K.

On to `Fc1ccccc1`, for which the log K of transfer, gas to solvent is 2.67 log10 K in series [1] (CCl4, 25 C); 3.44 log10 K in series [1] (Chloroform, 25 C); 2.81 log10 K in series [1] (Cyclohexane, 25 C); 2.79 log10 K in series [1] (Hexadecane, 25 C); 3.04 log10 K in series [1] (Hexane, 25 C); 3.62 log10 K in series [1] (Tetrahydrofuran, 25 C). Besides, in series [1] (Water, 25 C), the log K of transfer, gas to solvent is 0.59 log10 K. The log K of transfer, water to solvent is 2.08 log10 K in series [2] (CCl4, 25 C); 2.85 log10 K in series [2] (Chloroform, 25 C); 2.22 log10 K in series [2] (Cyclohexane, 25 C); 2.2 log10 K in series [2] (Hexadecane, 25 C); 2.45 log10 K in series [2] (Hexane, 25 C); 3.03 log10 K in series [2] (Tetrahydrofuran, 25 C).

As for `CCCCCCCCCCCCO`, the log K of transfer, gas to solvent in series [1] (Hexadecane, 25 C) is 6.62 log10 K; in series [1] (Hexane, 25 C) it was 6.79 log10 K; in series [1] (Water, 25 C), 2.44 log10 K. The log K of transfer, water to solvent was 4.18 log10 K in series [2] (Hexadecane, 25 C) and 4.35 log10 K in series [2] (Hexane, 25 C).

As to `CCCCCCN`, the log K of transfer, gas to solvent in series [1] (Hexadecane, 25 C) is 3.65 log10 K; in series [1] (Water, 25 C) it was 2.9 log10 K. Besides, in series [2] (Hexadecane, 25 C), the log K of transfer, water to solvent is 0.755 log10 K.
